Columns and labels:
[1] = tested on: OVCAR3 H2B-GFP cells; test: In vitro platinum-sensitive relapse model, live cell number by time-lapse imaging; assay type: cell-based; details: six days of treatment, FIG. 1C carboplatin 6.25 μM, FIG. 1D cisplatin 50 μM
From the text: FIGS. 1A-1E show the in vitro modeling of non-inherited drug resistance. […] FIGS. 1B-1E show relapse dynamics. Length of drug treatments are indicated as red shaded areas within the graphs. […] While much effort has been focused on experimental models to study the emergence of platinum-resistance (Cunnea & Stronach, Front Oncol 4:81 (2014)), little attention has been given to the development of robust methods to model platinum-sensitive relapse. As the clinical classification of relapse is based both on the effectiveness of the treatment and the time to recurrence, the present study aimed to establish a system that can capture both these aspects. Analogous to the CA125 levels that are used to monitor disease progression in patients, direct measurement of cell number was used to monitor response in vitro. To this end, an OVCAR3 H2B-GFP cell line was generated. OVCAR3 is a commonly used HGSOC model and the H2B-GFP allows the easy quantification of the number of live cells during the course of drug treatment. […] This response was quantified based on time-lapse images and a striking similarity was found between the pattern of platinum-sensitive relapse observed in patients (FIG. 1B), as measured by CA125 levels, and the pattern observed in vitro in this study (FIG. 1C-D). […]

[2] = tested on: Watermelon-transduced PC-9 cells; test: Sensitivity of Watermelon-transduced PC-9 cells to EGFR-TKIs, number of mCherry objects; assay type: cell-based; details: varying concentrations (FIGS. 6B and 6C)
From the text: FIGS. 6A-6D show the modeling of non-inherited drug resistance of PC-9 cells to EGFR tyrosine kinase inhibitors (EGFR-TKI).

SMILES	response of cells to platinum treatment (number of live cells) [1]	sensitivity of cells to EGFR-TKI (number of mCherry objects) [2]
N.N.O=C([O-])C1(C(=O)[O-])CCC1.[Pt+2] [carboplatin]	the majority of cells died	–
N.N.[Cl][Pt][Cl] [cisplatin]	the majority of cells died	–
C=CC(=O)Nc1cc(Nc2nccc(-c3cn(C)c4ccccc34)n2)c(OC)cc1N(C)CCN(C)C [osimertinib]	–	sensitive

From patent US20200080076A1, “Expressed Barcode Libraries and Uses Thereof” (The Broad Institute, Inc., priority 2018, published 2020)
